Test results from publication PMC9147789, “Development and Validation of a Novel LC-MS/MS Method for the Simultaneous Determination of Abemaciclib, Palbociclib, Ribociclib, Anastrozole, Letrozole, and Fulvestrant in Plasma Samples: A Prerequisite for Personalized Breast Cancer Treatment” (Pharmaceuticals, 2022).

Columns and labels:
[1] = plasma; cited from earlier work
[2] = design: method as in PMID 28540640; settings: plasma; reported PK/PD studies; cited from earlier work
[3] = Stability of the analytes in plasma (bench top, autosampler, freeze-thaw, long-term); format: physicochemical, human; settings: for Stability Bias (%) 1 FT Cycle (30 min, −18–25 °C) / Stability Bias (%) 2 FT Cycles (30 min, −18–25 °C) / Stability Bias (%) 3 FT Cycles (30 min, −18–25 °C) / Stability Bias (%) Long-Term (2 Weeks, −18 °C): plasma; for Stability Bias (%) 1 FT Cycle (30 min, −18–25 °C) / Stability Bias (%) 2 FT Cycles (30 min, −18–25 °C) / Stability Bias (%) 3 FT Cycles (30 min, −18–25 °C) / Stability Bias (%) Long-Term (2 Weeks, −18 °C) / Stability Bias (%) Autosampler (10 h, 10 °C): N = 3; for Stability Bias (%) Autosampler (10 h, 10 °C): processed plasma sample; for Stability Bias (%) Bench Top (2 h, 25 °C): unprocessed plasma, N = 3, vs fresh QC
Method: Stability of the stock and working solutions was determined in the preliminary studies. […] Patient plasma samples were stored long-term at −80 °C. Since adequate stability of plasma samples was proven at −18 °C, it was deemed acceptable at lower temperatures as well. Lower- and higher-concentration QC samples were prepared in triplicate for each condition and time point and were analyzed against QC samples freshly prepared in triplicate.

[4] = LC-MS/MS quantitation of drugs in single-point patient plasma samples (therapeutic drug monitoring); format: in vivo, human; settings: for concentration at 1 h: patient 4; for concentration at 27 day: sampling day 27 (off-treatment week)
Method: Samples from ten women (ages 35 to 78, median 50.5 years) receiving regular treatment with a combination of a CDK4/6 inhibitor (PAL, RIB or ABE) and endocrine therapy (ANA, LET, FUL or exemestane, EXE) were obtained and analyzed using this LC-MS method. The samples were mostly taken in the elimination phase, during the patients’ regular visit to the hospital before the next dose administration, except in the case of patient 4 (sampling 1 h after dose administration). The aromatase inhibitors and ABE are continuously administered as single daily doses, FUL is a once-monthly intramuscular injection, and the dosing regimen of PAL and RIB involves a week off treatment every 21 days to minimize treatment-induced neutropenia.
The samples were analyzed against freshly prepared calibration curves. The results are listed in Table 7, while the accompanying chromatograms and mass spectra are included in the Supplementary Materials, Section 1, Figures S1–S29.
Healthy and patient blood samples were collected and pre-treated at the University Hospital Centre Zagreb, with signed informed consent. Patients receiving a combination of a CDK4/6 inhibitor and endocrine therapy as regular treatment for at least 4 months were enrolled.
Whole blood was collected in containers with K2-EDTA anticoagulant and centrifuged for 10 min at 1500 g; the supernatant was then withdrawn and stored at −18 °C (blank plasma) or −80 °C (patients’ plasma). Hemolyzed plasma was obtained by briefly freezing a whole blood sample at −18 °C before continuing with the procedure.
(§1) Calibration and QC samples were prepared by diluting 5 µL of the appropriate working solutions of the analytes with 45 µL of blank plasma in 1.5 mL polypropylene centrifuge tubes. In case of patient sample analysis, an aliquot of 50 µL of patient plasma was used. Proteins were precipitated by adding 200 µL of ACN, after which the samples were vortex-mixed for 10 s and centrifuged at 2000 g for 5 min. The resulting supernatant was collected and 200 µL was evaporated to dryness in a vacuum evaporator at room temperature. The dry residue was dissolved in 40 µL of 65% methanol, while 5 µL was injected into the chromatographic system.

[5] = Clinical pharmacokinetic evaluation of RIB in one patient, first day of a treatment cycle, non-compartmental analysis; format: in vivo, human; settings: 600 mg oral dose
Method: Finally, we applied our fully validated method to evaluate the pharmacokinetic disposition of RIB in a patient during the first day of a treatment cycle. The plasma samples were prepared in the same manner as the single-point study samples and quantitated using a freshly prepared calibration curve. No additional dilution or preconcentration was necessary, as all the determined concentrations fell within the validated range. The corresponding data are available in Table S1 of the Supplementary Materials, Section 2 (Results of the pharmacokinetic study).
Pharmacokinetic data were analyzed with the PK solver Excel extension, using the linear trapezoidal model for non-compartmental analysis of plasma data after extravascular input. […] The beginning of the elimination phase was estimated around three hours after dosing. Ribociclib is administered as an instant release tablet dosage form, so no absorption lag was neither expected nor observed.
as §1

[6] = higher QC level (RIB 2500, ABE 1500, PAL 250, ANA 100, LET 250, FUL 500 ng/mL)
[7] = lower QC level (RIB 62.5, ABE 37.5, PAL 6.2, ANA 2.5, LET 6.25, FUL 12.5 ng/mL)

Row | SMILES | Stability Bias (%) 1 FT Cycle (30 min, −18–25 °C) [3, 6] | Stability Bias (%) 2 FT Cycles (30 min, −18–25 °C) [3, 6] | Stability Bias (%) 3 FT Cycles (30 min, −18–25 °C) [3, 6] | Stability Bias (%) Long-Term (2 Weeks, −18 °C) [3, 6] | Stability Bias (%) 1 FT Cycle (30 min, −18–25 °C) [3, 7] | Stability Bias (%) 2 FT Cycles (30 min, −18–25 °C) [3, 7] | Stability Bias (%) 3 FT Cycles (30 min, −18–25 °C) [3, 7] | Stability Bias (%) Long-Term (2 Weeks, −18 °C) [3, 7] | Stability Bias (%) Autosampler (10 h, 10 °C) [3, 6] | Stability Bias (%) Autosampler (10 h, 10 °C) [3, 7] | Stability Bias (%) Bench Top (2 h, 25 °C) [3, 6] | Stability Bias (%) Bench Top (2 h, 25 °C) [3, 7] | Expected literature range Cmin–Cmax [1] | also measured
1 | CCN1CCN(Cc2ccc(Nc3ncc(F)c(-c4cc(F)c5nc(C)n(C(C)C)c5c4)n3)nc2)CC1 [ABE, abemaciclib] | 9.37% | 5.68% | 1.13% | 3.09% | 13.23% | −7.43% | 14.07% | 7.60% | 14.88% | 11.51% | −0.10% | 9.09% | 102.65–1381 [25] ng/mL | Minimal threshold concentration for efficacy [2]: 200 ng/mL; Plasma Concentration ([4]; patient 1, ABE 300 mg daily, continuous, before next dose): 425.79 ng/mL
2 | C[C@]12CC[C@@H]3c4ccc(O)cc4C[C@@H](CCCCCCCCC[S+]([O-])CCCC(F)(F)C(F)(F)F)[C@H]3[C@@H]1CC[C@@H]2O (stereo partly drawn) [FUL, fulvestrant] | 2.23% | 4.49% | −7.51% | −1.62% | −14.59% | −13.24% | −8.90% | −5.01% | −8.06% | 7.38% | 2.32% | −9.36% | 16–25 [29] ng/mL | Plasma Concentration ([4]; patient 7, FUL 500 mg monthly, intramuscular): 20.73 ng/mL; Plasma Concentration ([4]; patient 8, FUL 500 mg monthly, intramuscular): 22.69 ng/mL; Plasma Concentration ([4]; patient 9, FUL 500 mg monthly, intramuscular): 22.13 ng/mL; Plasma Concentration ([4]; patient 10, FUL 500 mg monthly, intramuscular): 24.56 ng/mL
3 | CC(=O)c1c(C)c2cnc(Nc3ccc(N4CCNCC4)cn3)nc2n(C2CCCC2)c1=O [PAL, palbociclib] | 6.35% | −1.65% | −7.90% | −3.08% | 14.97% | 1.86% | 2.81% | 12.29% | 14.95% | 13.69% | −4.37% | 3.08% | 72.8–185.5 [26] ng/mL | concentration at 27 day ([4]; human, plasma, patient 8, PAL 125 mg daily): 7.55 ng/mL; Plasma Concentration (ng/mL) ([4]; patient 9, PAL 125 mg daily, sampling day 28 (off-treatment week)): <LOQ; Plasma Concentration (ng/mL) ([4]; patient 10, PAL 125 mg daily, sampling day 23 (off-treatment week)): <LOD
4 | CN(C)C(=O)c1cc2cnc(Nc3ccc(N4CCNCC4)cn3)nc2n1C1CCCC1 [RIB, ribociclib] | 11.10% | −1.66% | −4.69% | −10.69% | 7.88% | 1.69% | 6.00% | 13.89% | −6.47% | 8.95% | 4.96% | 6.01% | 711–3500 [24] ng/mL | concentration at 24 day ([4]; human, plasma, oral, patient 2, RIB 600 mg daily, sampling day 24 of cycle (off-treatment week)): 57.4 ng/mL; concentration at 16 day ([4]; human, plasma, oral, patient 3, RIB 600 mg daily, sampling day 16 (trough, steady state)): 682 ng/mL; concentration at 1 h ([4]; human, plasma, oral, RIB 600 mg daily, sampling day 1, 1 h after dose administration): 1520 ng/mL; concentration at 12 day ([4]; human, plasma, oral, patient 5, RIB 600 mg daily, sampling day 12 (trough, steady state)): 1190 ng/mL; concentration at 28 day ([4]; human, plasma, oral, patient 6, RIB 600 mg daily, sampling day 28 (off-treatment week)): 27.2 ng/mL; concentration at 27 day ([4]; human, plasma, oral, patient 7, RIB 600 mg daily): 40.7 ng/mL; Elimination constant ([5]; non-compartmental analysis, PK solver): 0.022 h⁻¹; Cmax ([5]; human, first day of treatment cycle, plasma, read-out: Maximum concentration (Cmax)): 1830 ng/mL; half-life ([5]; human, plasma, non-compartmental analysis, PK solver, read-out: Elimination half-life (converted)): 1890 min; concentration at 0 h ([5]; human, plasma, t 0.00 h, read-out: CRIB (ng/mL) plasma concentration): 945 ng/mL; concentration at 0.25 h ([5]; human, plasma, t 0.25 h, read-out: CRIB (ng/mL) plasma concentration): 1050 ng/mL; concentration at 0.5 h ([5]; human, plasma, t 0.50 h, read-out: CRIB (ng/mL) plasma concentration): 1240 ng/mL; concentration at 1 h ([5]; human, plasma, t 1.00 h, read-out: CRIB (ng/mL) plasma concentration): 1520 ng/mL; concentration at 3 h ([5]; human, plasma, t 3.00 h, read-out: CRIB (ng/mL) plasma concentration): 1830 ng/mL; concentration at 6 h ([5]; human, plasma, t 6.00 h, read-out: CRIB (ng/mL) plasma concentration): 1710 ng/mL; concentration at 12 h ([5]; human, plasma, t 12.00 h, read-out: CRIB (ng/mL) plasma concentration): 1500 ng/mL

Second part, led by results:

Row | Stability Bias (%) 1 FT Cycle (30 min, −18–25 °C) [3, 6] | Stability Bias (%) 2 FT Cycles (30 min, −18–25 °C) [3, 6] | Stability Bias (%) 3 FT Cycles (30 min, −18–25 °C) [3, 6] | Stability Bias (%) Long-Term (2 Weeks, −18 °C) [3, 6] | Stability Bias (%) 1 FT Cycle (30 min, −18–25 °C) [3, 7] | Stability Bias (%) 2 FT Cycles (30 min, −18–25 °C) [3, 7] | Stability Bias (%) 3 FT Cycles (30 min, −18–25 °C) [3, 7] | Stability Bias (%) Long-Term (2 Weeks, −18 °C) [3, 7] | Stability Bias (%) Autosampler (10 h, 10 °C) [3, 6] | Stability Bias (%) Autosampler (10 h, 10 °C) [3, 7] | Stability Bias (%) Bench Top (2 h, 25 °C) [3, 6] | Stability Bias (%) Bench Top (2 h, 25 °C) [3, 7] | SMILES | Expected literature range Cmin–Cmax [1] | also measured
5 | 6.65% | 8.39% | −0.69% | −0.40% | −7.88% | −2.80% | −3.98% | 3.09% | 4.89% | 2.27% | −0.62% | −10.33% | CC(C)(C#N)c1cc(Cn2cncn2)cc(C(C)(C)C#N)c1 [ANA, anastrozole] | 22–52.6 [27] ng/mL | Plasma Concentration ([4]; patient 5, ANA 1 mg daily): 43.96 ng/mL
6 | 2.07% | −0.26% | −7.61% | −7.75% | −0.06% | −6.52% | −3.50% | −10.44% | −0.29% | 6.11% | 6.16% | −6.81% | N#Cc1ccc(C(c2ccc(C#N)cc2)n2cncn2)cc1 [LET, letrozole] | 28.4–349.2 [28] ng/mL | concentration at 1 h ([4]; human, plasma, LET 2.5 mg daily, 1 h after dose administration): 139 ng/mL; Plasma Concentration ([4]; patient 1, LET 2.5 mg daily): 109.99 ng/mL; Plasma Concentration ([4]; patient 2, LET 2.5 mg daily): 141.11 ng/mL; Plasma Concentration ([4]; patient 3, LET 2.5 mg daily): 146.21 ng/mL
